The source of these data is US20250154144A1 (CHILDREN'S HOSPITAL MEDICAL CENTER, priority 2021, published 2025).

For assay [1], the system named is MOLM14 D835Y cells. The assay is described as follows: cells. It counts as cell-based. To be noted: 48 hours, Cell Titer Glo, read-out: MOLM14 D835Y IC50.
The subject of assay [2] is MOLM14 F691L cells. The assay can be described thus: cells. It is filed as cell-based. The following applies: 48 hours, Cell Titer Glo, read-out: MOLM14 F691L IC50. In general terms: Cellular ATP, detected with luciferase, serves as a proxy for viable cell number.
For assay [3], the target named is T1, FLT3 (Homo sapiens, UniProt P36888).
T1 sequence (P36888 610-943 limits assumed): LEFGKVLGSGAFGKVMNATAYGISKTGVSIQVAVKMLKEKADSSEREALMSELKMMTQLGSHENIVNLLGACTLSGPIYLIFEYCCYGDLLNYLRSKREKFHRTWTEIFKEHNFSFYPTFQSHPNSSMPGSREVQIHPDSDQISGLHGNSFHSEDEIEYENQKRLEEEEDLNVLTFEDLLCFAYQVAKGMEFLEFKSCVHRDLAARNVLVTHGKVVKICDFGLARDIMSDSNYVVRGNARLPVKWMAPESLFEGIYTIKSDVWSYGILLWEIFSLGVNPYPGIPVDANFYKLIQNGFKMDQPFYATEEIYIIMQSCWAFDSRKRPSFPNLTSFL
The assay can be described thus: RBC HotSpot Kinase Assay, FLT3.

For assay [4], the target named is IRAK1 (Homo sapiens, UniProt P51617). The assay is described as follows: RBC HotSpot Kinase Assay, IRAK1. To be noted: IRAK1 IC50.
Assay [5] has as its target T2, IRAK4 (Homo sapiens, UniProt Q9NWZ3).
T2 sequence (Q9NWZ3 1-460): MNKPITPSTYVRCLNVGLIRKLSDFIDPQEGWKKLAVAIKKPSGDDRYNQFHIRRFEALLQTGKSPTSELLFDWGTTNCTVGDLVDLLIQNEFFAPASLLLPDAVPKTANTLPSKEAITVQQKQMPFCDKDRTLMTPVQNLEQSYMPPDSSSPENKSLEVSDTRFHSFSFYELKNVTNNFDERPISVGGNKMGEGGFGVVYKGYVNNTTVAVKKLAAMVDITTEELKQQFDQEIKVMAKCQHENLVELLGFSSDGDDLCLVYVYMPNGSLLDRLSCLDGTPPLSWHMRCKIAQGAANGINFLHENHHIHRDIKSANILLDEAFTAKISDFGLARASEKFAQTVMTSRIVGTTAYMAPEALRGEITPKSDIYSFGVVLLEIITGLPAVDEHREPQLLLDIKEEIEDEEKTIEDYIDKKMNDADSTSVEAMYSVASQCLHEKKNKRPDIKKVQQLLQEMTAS
The assay can be described thus: RBC HotSpot Kinase Assay, IRAK4. To be noted: IRAK4 IC50.

Molecules are shown by their SMILES. Where two headings read alike, the source gives them in different places. Some results are limits rather than exact numbers.

IRAK1, sequence (P51617 whole entry): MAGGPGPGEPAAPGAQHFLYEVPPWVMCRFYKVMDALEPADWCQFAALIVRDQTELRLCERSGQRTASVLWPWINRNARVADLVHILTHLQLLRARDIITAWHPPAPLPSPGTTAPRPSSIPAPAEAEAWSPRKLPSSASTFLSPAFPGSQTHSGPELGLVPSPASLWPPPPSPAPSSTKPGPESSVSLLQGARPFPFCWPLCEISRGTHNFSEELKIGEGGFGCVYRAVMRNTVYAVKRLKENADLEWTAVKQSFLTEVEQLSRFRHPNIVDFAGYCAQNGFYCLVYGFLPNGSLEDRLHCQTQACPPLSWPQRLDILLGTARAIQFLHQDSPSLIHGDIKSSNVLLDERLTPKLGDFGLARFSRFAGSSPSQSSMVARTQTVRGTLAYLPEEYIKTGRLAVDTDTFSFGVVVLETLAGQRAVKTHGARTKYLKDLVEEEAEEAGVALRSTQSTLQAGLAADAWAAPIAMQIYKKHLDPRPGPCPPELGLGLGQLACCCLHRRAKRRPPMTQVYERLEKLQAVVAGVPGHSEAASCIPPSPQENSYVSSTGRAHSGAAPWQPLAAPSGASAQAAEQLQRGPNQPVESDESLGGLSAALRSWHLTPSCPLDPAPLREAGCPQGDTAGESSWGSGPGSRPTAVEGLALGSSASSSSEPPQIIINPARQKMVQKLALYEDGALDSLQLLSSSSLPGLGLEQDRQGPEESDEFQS

By IC50 is commonly meant the point on the concentration scale where inhibition reaches its midpoint. Consider `F[C@H]1CNC[C@@H]1Nc1cncc(-c2cnc3cc(OC4CC4)ccn23)n1` [Compound 10, 6-(7-cyclopropoxyimidazo[1,2-a]pyridin-3-yl)-N-((3S,4S)-4-fluoropyrrolidin-3-yl)pyrazin-2-amine], for which the IC50 in assay [1] (Homo sapiens, MOLM-14, 48 h) was 244 nM; in assay [2] (Homo sapiens, MOLM-14, 48 h) it was 770 nM; in assay [3] (FLT3 IC50), < 0.5 nM; in assay [4], 24 nM; in assay [5], 9 nM.

For `CC(O)(c1cn2c(-c3ccnc(N[C@@H]4CCCNC4)n3)cnc2cn1)C(F)(F)F` (single isomer, unassigned) [Compound 67], the IC50 in assay [1] (Homo sapiens, MOLM-14, 48 h) was 137 nM; in assay [2] (Homo sapiens, MOLM-14, 48 h) it was 770 nM; in assay [3] (FLT3 IC50) it was < 0.5 nM; in assay [4] it was 31 nM; in assay [5], 22 nM.

`FC(F)Oc1ccn2c(-c3cncc(N[C@@H]4CCCNC4)n3)cnc2c1` [Compound 14, (R)-6-(7-(difluoromethoxy)imidazo [1,2-a]pyridin-3-yl)-N-(piperidin-3-yl)pyrazin-2-amine]: the IC50 came out at 86 nM in assay [1] (Homo sapiens, MOLM-14, 48 h); 193 nM in assay [2] (Homo sapiens, MOLM-14, 48 h); 0.8 nM in assay [3] (FLT3 IC50); 447 nM in assay [4]; 12 nM in assay [5].

As for `O=C1CCCN1c1cn2c(-c3ccnc(N[C@H]4CNCC[C@@H]4F)n3)cnc2cn1` [Compound 48, 1-(3-(2-(((3S,4S)-4-fluoropiperidin-3-yl)amino)pyrimidin-4-yl)imidazo[1,2-a]pyrazin-6-yl)pyrrolidin-2-one], the IC50 is 43 nM in assay [1] (Homo sapiens, MOLM-14, 48 h); 273 nM in assay [2] (Homo sapiens, MOLM-14, 48 h); < 0.5 nM in assay [3] (FLT3 IC50); 97 nM in assay [4]; 18 nM in assay [5].

On to `FC(F)COc1ccn2c(-c3cncc(N[C@@H]4CCCNC4)n3)cnc2c1` [Compound 8, (R)-6-(7-(2,2-difluoroethoxy)imidazo[1,2-a]pyridin-3-yl)-N-(piperidin-3-yl)pyrazin-2-amine], for which the IC50 is 14 nM in assay [1] (Homo sapiens, MOLM-14, 48 h); 39 nM in assay [2] (Homo sapiens, MOLM-14, 48 h); < 0.5 nM in assay [3] (FLT3 IC50); 42 nM in assay [4]; < 0.5 nM in assay [5].

As to `FC(F)COc1ccn2c(-c3ccnc(N[C@@H]4CCCNC4)n3)cnc2c1` [Compound 32, (R)-4-(7-(2,2-difluoroethoxy)imidazo[1,2-a]pyridin-3-yl)-N-(piperidin-3-yl)pyrimidin-2-amine], the IC50 is 7 nM in assay [1] (Homo sapiens, MOLM-14, 48 h); 77 nM in assay [2] (Homo sapiens, MOLM-14, 48 h); < 0.5 nM in assay [3] (FLT3 IC50); 45 nM in assay [4]; 2 nM in assay [5].

Consider `FC(F)COc1ccn2c(-c3ccnc(N[C@H]4CNC[C@@H]4F)n3)cnc2c1` [Compound 31, 4-(7-(2,2-difluoroethoxy)imidazo[1,2-a]pyridin-3-yl)-N-((3S,4S)-4-fluoropyrrolidin-3-yl)pyrimidin-2-amine], for which the IC50 in assay [1] (Homo sapiens, MOLM-14, 48 h) was 15 nM; in assay [2] (Homo sapiens, MOLM-14, 48 h) it was 344 nM; in assay [3] (FLT3 IC50), < 0.5 nM; in assay [4], 9 nM; in assay [5] it was 0.7 nM.

For `FC(F)Oc1ccn2c(-c3cncc(N[C@H]4CNC[C@@H]4F)n3)cnc2c1` [Compound 13, 6-(7-(difluoromethoxy)imidazo [1,2-a]pyridin-3-yl)-N-((3S,4S)-4-fluoropyrrolidin-3-yl)pyrazin-2-amine], the IC50 in assay [1] (Homo sapiens, MOLM-14, 48 h) is 307 nM; in assay [2] (Homo sapiens, MOLM-14, 48 h) it was 864 nM; in assay [3] (FLT3 IC50), 1 nM; in assay [4], 86 nM; in assay [5] it was 21 nM.

On to `FC(F)Oc1ccn2c(-c3ccnc(N[C@H]4CNC[C@@H]4F)n3)cnc2c1` [Compound 34, 4-(7-(difluoromethoxy)imidazo[1,2-a]pyridin-3-yl)-N-((3S,4S)-4-fluoropyrrolidin-3-yl)pyrimidin-2-amine], for which the IC50 in assay [1] (Homo sapiens, MOLM-14, 48 h) was 86 nM; in assay [2] (Homo sapiens, MOLM-14, 48 h) it was 1090 nM; in assay [3] (FLT3 IC50), < 0.5 nM; in assay [4] it was 10 nM; in assay [5], 5 nM.

In the case of `CC(O)(c1cn2c(-c3ccnc(N[C@H]4CNC[C@@H]4F)n3)cnc2cn1)C(F)(F)F` (single isomer, unassigned) [Compound 71], the IC50 in assay [1] was 69 nM; in assay [2], 686 nM; in assay [3] (read-out: FLT3 IC50) it was < 0.5 nM; in assay [4] it was 5 nM; in assay [5], < 0.5 nM.

Take `O=C1CCCN1c1cn2c(-c3ccnc(N[C@H]4CNC[C@@H]4F)n3)cnc2cn1` [Compound 46, 1-(3-(2-(((3S,4S)-4-fluoropyrrolidin-3-yl)amino)pyrimidin-4-yl)imidazo[1,2-a]pyrazin-6-yl)pyrrolidin-2-one]: the IC50 in assay [1] (Homo sapiens, MOLM-14, 48 h) is 77 nM; in assay [2] (Homo sapiens, MOLM-14, 48 h), 1370 nM; in assay [3] (FLT3 IC50), < 0.5 nM; in assay [4], 64 nM; in assay [5], 12 nM.

For the compound `c1cn2c(-c3cncc(N[C@@H]4CCCNC4)n3)cnc2cc1OC1CC1` [Compound 11, (R)-6-(7-cyclopropoxyimidazo[1,2-a]pyridin-3-yl)-N-(piperidin-3-yl)pyrazin-2-amine], the IC50 in assay [1] (Homo sapiens, MOLM-14, 48 h) was 43 nM; in assay [2] (Homo sapiens, MOLM-14, 48 h), 109 nM; in assay [3] (FLT3 IC50), < 0.5 nM; in assay [4], 85 nM; in assay [5] it was 5 nM.

For `FC(F)COc1ccn2c(-c3cncc(N[C@H]4CNC[C@@H]4F)n3)cnc2c1` [Compound 7], the IC50 in assay [1] (Homo sapiens, MOLM-14, 48 h) is 69 nM; in assay [2] (Homo sapiens, MOLM-14, 48 h) it was 217 nM; in assay [3] (FLT3 IC50), < 0.5 nM; in assay [4], 85 nM; in assay [5], 4 nM.

Take `COc1ccn2c(-c3cncc(N[C@H]4CNC[C@@H]4F)n3)cnc2c1` [Compound 4, N-((3S,4S)-4-fluoropyrrolidin-3-yl)-6-(7-methoxyimidazo[1,2-a]pyridin-3-yl)pyrazin-2-amine]: the IC50 is 77 nM in assay [1] (Homo sapiens, MOLM-14, 48 h); 244 nM in assay [2] (Homo sapiens, MOLM-14, 48 h); < 0.5 nM in assay [3] (FLT3 IC50); 29 nM in assay [4]; 2 nM in assay [5].

Turning to `FC(F)Oc1ccn2c(-c3ccnc(N[C@H]4CNCC[C@@H]4F)n3)cnc2c1` [Compound 36, 4-(7-(difluoromethoxy)imidazo[1,2-a]pyridin-3-yl)-N-((3S,4S)-4-fluoropiperidin-3-yl)pyrimidin-2-amine], the IC50 was 43 nM in assay [1] (Homo sapiens, MOLM-14, 48 h); 307 nM in assay [2] (Homo sapiens, MOLM-14, 48 h); < 0.5 nM in assay [3] (FLT3 IC50); 17 nM in assay [4]; 3 nM in assay [5].

As for `O=C1CCCN1c1cn2c(-c3ccnc(N[C@@H]4CCCNC4)n3)cnc2cn1` [Compound 47, (R)-1-(3-(2-(piperidin-3-ylamino)pyrimidin-4-yl)imidazo[1,2-a]pyrazin-6-yl)pyrrolidin-2-one], the IC50 was 39 nM in assay [1] (Homo sapiens, MOLM-14, 48 h); 344 nM in assay [2] (Homo sapiens, MOLM-14, 48 h); < 0.5 nM in assay [3] (FLT3 IC50); 68 nM in assay [4]; 12 nM in assay [5].

Take `CC(O)(c1cn2c(-c3cncc(N[C@@H]4CCCNC4)n3)cnc2cn1)C(F)(F)F` (single isomer, unassigned) [Compound 74]: the IC50 in assay [1] was determined as 217 nM; in assay [2], 344 nM; in assay [3] (FLT3 IC50) it was 3 nM; in assay [4], 29 nM; in assay [5], 4 nM.
